From the supplement of paper PMC13380429

Legend:
[1] = system: A549-ACE2 infected with SARS-CoV-2; experiment: SARS-CoV-2 infection rate relative to DMSO; higher = more infection; settings: 24 h
[2] = system: A549-ACE2 infected with SARS-CoV-2; experiment: morphology score (similarity to uninfected cells); higher = more like uninfected cells; settings: 24 h
[3] = system: A549-ACE2 infected with SARS-CoV-2; experiment: cell count relative to DMSO; higher = less toxic; settings: 24 h
[4] = system: A549-ACE2; experiment: drug-induced phospholipidosis relative to tamoxifen; higher = more phospholipidosis
[5] = system: Vero E6; experiment: drug sensitivity score (DSS) for viability; higher = more toxic; extreme values may be limits of the assay; settings: 72 h
[6] = system: Calu-3; experiment: as above; settings: 72 h
[7] = system: U2OS; experiment: as above; settings: 72 h
[8] = system: Caco-2; experiment: as above; settings: 72 h
[9] = system: HepG2; experiment: as above; settings: 72 h
[10] = system: Vero E6; experiment: cell viability relative to DMSO; higher = less toxic; settings: 72 h
[11] = system: Calu-3; experiment: as above; settings: 72 h
[12] = system: U2OS; experiment: as above; settings: 72 h
[13] = system: Caco-2; experiment: as above; settings: 72 h
[14] = system: HepG2; experiment: as above; settings: 72 h
[15] = system: Vero E6; experiment: relative viability EC50 (midpoint between 100% and the lowest measured viability); higher = less toxic; settings: 72 h
[16] = system: Calu-3; experiment: as above; settings: 72 h
[17] = system: U2OS; experiment: as above; settings: 72 h
[18] = system: Caco-2; experiment: as above; settings: 72 h
[19] = system: HepG2; experiment: as above; settings: 72 h
[20] = system: A549-ACE2; experiment: phospholipidosis EC50; higher = less potent phospholipidosis inducer

CC1(C)CC[C@]2(C(=O)O)CC[C@]3(C)[C@H](C(=O)C=C4[C@@]5(C)C=C(C#N)C(=O)C(C)(C)[C@@H]5CC[C@]43C)[C@@H]2C1 [bardoxolone]
Settings	SARS-CoV-2 infection rate, [1] [%]	cell count, [3] [%]	cell viability, [10] [%]	cell viability, [11] [%]	cell viability, [12] [%]	cell viability, [13] [%]	cell viability, [14] [%]	morphology score, [2]
1 nM	–	–	101	102	101	91.3	98.2	–
10 nM	–	–	102	104	104	107	92.1	–
0.1 µM	97	101	–	–	–	–	–	0.07
100 nM	–	–	111	102	102	78.1	89.7	–
0.3 µM	99	91	–	–	–	–	–	-0.05
1 µM	99	89	–	–	–	–	–	-0.09
1000 nM	–	–	104	92.5	72.3	83.8	62.8	–
3 µM	115	94	–	–	–	–	–	-0.26
10000 nM	–	–	18.3	15.5	12	82.9	5.4	–

drug-induced phospholipidosis [%], [4]
Settings	0.3 µM	0.833333 µM	3.33333 µM	6.66667 µM	10 µM
24 h	-1.07	-5.8	7.86	18.2	-6.56
48 h	-3.77	-7.72	1.1	–	–
72 h	-2.71	-7.17	–	–	–

Settings	drug sensitivity score	relative viability EC50 [µM]
[5]	4.2	–
[6]	5.9	–
[7]	8.9	–
[8]	5.3	–
[9]	9.5	–
[15]	–	3.43
[16]	–	2.44
[17]	–	1.37
[18]	–	> 10
[19]	–	1.28

CN1[C@@H]2CC[C@H]1C[C@@H](OC(c1ccccc1)c1ccccc1)C2 [benztropine-mesylate]
Settings	SARS-CoV-2 infection rate [%]	cell count [%]	cell viability [%]	morphology score	phospholipidosis EC50 [µM]
[1], 0.3 µM	106	–	–	–	–
[1], 3 µM	60	–	–	–	–
[1], 10 µM	33	–	–	–	–
[1], 30 µM	12	–	–	–	–
[2], 0.3 µM	–	–	–	-0.15	–
[2], 3 µM	–	–	–	0.67	–
[2], 10 µM	–	–	–	0.82	–
[2], 30 µM	–	–	–	0.71	–
[3], 0.3 µM	–	98	–	–	–
[3], 3 µM	–	112	–	–	–
[3], 10 µM	–	123	–	–	–
[3], 30 µM	–	120	–	–	–
[10], 1 nM	–	–	99.4	–	–
[10], 10 nM	–	–	104	–	–
[10], 100 nM	–	–	103	–	–
[10], 1000 nM	–	–	97.5	–	–
[10], 10000 nM	–	–	93.8	–	–
[11], 1 nM	–	–	101	–	–
[11], 10 nM	–	–	101	–	–
[11], 100 nM	–	–	109	–	–
[11], 1000 nM	–	–	116	–	–
[11], 10000 nM	–	–	94.2	–	–
[12], 1 nM	–	–	95.2	–	–
[12], 10 nM	–	–	98	–	–
[12], 100 nM	–	–	95.5	–	–
[12], 1000 nM	–	–	98.3	–	–
[12], 10000 nM	–	–	92.4	–	–
[13], 1 nM	–	–	96.2	–	–
[13], 10 nM	–	–	98	–	–
[13], 100 nM	–	–	94.5	–	–
[13], 1000 nM	–	–	103	–	–
[13], 10000 nM	–	–	93	–	–
[14], 1 nM	–	–	103	–	–
[14], 10 nM	–	–	102	–	–
[14], 100 nM	–	–	103	–	–
[14], 1000 nM	–	–	89	–	–
[14], 10000 nM	–	–	92.1	–	–
[20], 24 h	–	–	–	–	8.44
[20], 48 h	–	–	–	–	9.6
[20], 72 h	–	–	–	–	9.86

drug-induced phospholipidosis [%], [4]
Settings	0.3 µM	0.833333 µM	3.33333 µM	6.66667 µM	10 µM	30 µM
24 h	2.39	-1.85	12.3	31.1	63.2	94.2
48 h	3.49	2.96	8.82	25.8	58.8	103
72 h	4.91	3.92	10.9	27.1	59.7	107

Settings	drug sensitivity score	relative viability EC50 [µM]
[5]	0	–
[6]	0	–
[7]	0	–
[8]	0	–
[9]	0.2	–
[15]	–	> 10
[16]	–	> 10
[17]	–	> 10
[18]	–	> 10
[19]	–	> 10

O=C(OCC(O)CO)c1ccccc1Nc1ccnc2cc(Cl)ccc12 (configuration not stated) [glafenine]
Settings	SARS-CoV-2 infection rate, [1] [%]	cell count, [3] [%]	cell viability, [10] [%]	cell viability, [11] [%]	cell viability, [12] [%]	cell viability, [13] [%]	cell viability, [14] [%]	morphology score, [2]
1 nM	–	–	101	89.4	97.2	84.7	99.8	–
10 nM	–	–	90.5	100	102	95.9	81.1	–
100 nM	–	–	102	87.7	94.8	66.6	97.4	–
0.3 µM	94	103	–	–	–	–	–	0.2
1000 nM	–	–	86.9	106	98.2	89.5	91	–
3 µM	88	85	–	–	–	–	–	0.28
10 µM	97	115	–	–	–	–	–	0.42
10000 nM	–	–	107	94	89	95.7	94.3	–
30 µM	53	104	–	–	–	–	–	0.74

drug-induced phospholipidosis [%], [4]
Settings	0.3 µM	0.833333 µM	3.33333 µM	6.66667 µM	10 µM	30 µM
24 h	0.74	1.36	2	1.93	2.17	23.8
48 h	0.09	-3.04	0.5	3.25	3.8	23.1
72 h	-1.15	-3.87	-2.67	0.336	3.93	30.1

Settings	drug sensitivity score	relative viability EC50 [µM]
[5]	0	–
[6]	0	–
[7]	0	–
[8]	0	–
[9]	0	–
[15]	–	> 10
[16]	–	> 10
[17]	–	> 10
[18]	–	> 10
[19]	–	> 10

O=C1Cc2c([nH]c3ccc(Br)cc23)-c2ccccc2N1 [kenpaullone]
Settings	SARS-CoV-2 infection rate, [1] [%]	cell count, [3] [%]	cell viability, [10] [%]	cell viability, [11] [%]	cell viability, [12] [%]	cell viability, [13] [%]	cell viability, [14] [%]	morphology score, [2]
1 nM	–	–	93.4	92.1	98.4	99.6	110	–
10 nM	–	–	93.6	95.1	98.9	93.2	96.2	–
100 nM	–	–	90.1	98.9	98.8	100	100	–
0.3 µM	106	103	–	–	–	–	–	0.06
1000 nM	–	–	101	113	104	102	108	–
3 µM	96	100	–	–	–	–	–	0.37
10 µM	94	85	–	–	–	–	–	0.47
10000 nM	–	–	115	101	82.3	96	100	–
30 µM	88	67	–	–	–	–	–	0.48

drug-induced phospholipidosis [%], [4]
Settings	0.3 µM	0.833333 µM	3.33333 µM	6.66667 µM	10 µM	30 µM
24 h	-0.53	-1.07	-1.23	1.24	-0.93	4.23
48 h	1.47	-0.14	1.75	3.52	2.75	2.49
72 h	2.92	0.874	5.13	6.52	5.66	9.54

Settings	drug sensitivity score	relative viability EC50 [µM]
[5]	0	–
[6]	0	–
[7]	0.3	–
[8]	0	–
[9]	0	–
[15]	–	> 10
[16]	–	> 10
[17]	–	> 10
[18]	–	> 10
[19]	–	> 10

NC(=O)N1CCC(CC(=O)N2CCC([C@H]3c4ncc(Br)cc4CCc4cc(Cl)cc(Br)c43)CC2)CC1 [lonafarnib]
Settings	SARS-CoV-2 infection rate [%]	cell count [%]	cell viability [%]	morphology score	phospholipidosis EC50 [µM]
[1], 0.3 µM	97	–	–	–	–
[1], 3 µM	85	–	–	–	–
[1], 10 µM	71	–	–	–	–
[1], 30 µM	11	–	–	–	–
[2], 0.3 µM	–	–	–	0.19	–
[2], 3 µM	–	–	–	0.41	–
[2], 10 µM	–	–	–	0.69	–
[2], 30 µM	–	–	–	0.56	–
[3], 0.3 µM	–	98	–	–	–
[3], 3 µM	–	102	–	–	–
[3], 10 µM	–	94	–	–	–
[3], 30 µM	–	74	–	–	–
[10], 1 nM	–	–	103	–	–
[10], 10 nM	–	–	94.1	–	–
[10], 100 nM	–	–	94.8	–	–
[10], 1000 nM	–	–	93.3	–	–
[10], 10000 nM	–	–	88.3	–	–
[11], 1 nM	–	–	80.5	–	–
[11], 10 nM	–	–	91.2	–	–
[11], 100 nM	–	–	91.3	–	–
[11], 1000 nM	–	–	72.6	–	–
[11], 10000 nM	–	–	68.5	–	–
[12], 1 nM	–	–	97.5	–	–
[12], 10 nM	–	–	100	–	–
[12], 100 nM	–	–	95	–	–
[12], 1000 nM	–	–	92	–	–
[12], 10000 nM	–	–	67.2	–	–
[13], 1 nM	–	–	91.3	–	–
[13], 10 nM	–	–	106	–	–
[13], 100 nM	–	–	94.6	–	–
[13], 1000 nM	–	–	79.7	–	–
[13], 10000 nM	–	–	47.7	–	–
[14], 1 nM	–	–	102	–	–
[14], 10 nM	–	–	98.7	–	–
[14], 100 nM	–	–	96.2	–	–
[14], 1000 nM	–	–	89.5	–	–
[14], 10000 nM	–	–	49.8	–	–
[20], 24 h	–	–	–	–	7.17

drug-induced phospholipidosis [%], [4]
Settings	0.3 µM	0.833333 µM	3.33333 µM	6.66667 µM	10 µM	30 µM
24 h	11.7	7.58	19.6	27.3	40.9	50.3
48 h	16.3	10.1	20.5	30.3	36.1	–
72 h	15.9	12.2	29.3	42.5	51.2	–

Settings	drug sensitivity score	relative viability EC50 [µM]
[5]	0	–
[6]	6.3	–
[7]	2.6	–
[8]	5	–
[9]	4.4	–
[15]	–	> 10
[18]	–	1.29
[19]	–	1.7

O=c1c2ccccc2oc2ccccc12 [xanthone]
Settings	drug sensitivity score	relative viability EC50 [µM]
[5]	0	–
[6]	0	–
[7]	0	–
[8]	0	–
[9]	0	–
[15]	–	> 10
[16]	–	> 10
[17]	–	> 10
[18]	–	> 10
[19]	–	> 10

cell viability [%]
Settings	[10]	[11]	[12]	[13]	[14]
1 nM	104	95.3	101	102	108
10 nM	100	96.5	94.9	98.6	93.8
100 nM	101	103	99	101	93.5
1000 nM	99.1	104	97.9	95.1	110
10000 nM	95.9	104	100	106	93.6

C=CCCCCCCCCC(=O)[O][Zn][O]C(=O)CCCCCCCCC=C [zinc-undecylenate]
Settings	drug sensitivity score	relative viability EC50 [µM]
[5]	0	–
[6]	0	–
[7]	0	–
[8]	0.3	–
[9]	0	–
[15]	–	> 10
[16]	–	> 10
[17]	–	> 10
[18]	–	> 10
[19]	–	> 10

cell viability [%]
Settings	[10]	[11]	[12]	[13]	[14]
1 nM	105	95.7	97.7	94.4	102
10 nM	95.9	100	98.8	96.3	98.8
100 nM	94.8	101	98.4	98.2	99.3
1000 nM	98.5	95.6	95.1	96.6	100
10000 nM	93.9	116	99.1	86.9	92
